Test results reported in publication PMC11018795, “The regulatory relationship between NAMPT and PD-L1 in cancer and identification of a dual-targeting inhibitor” (EMBO Molecular Medicine, 2024).
“And” between values parts separate entries of the source, which are not always exact repeats. Equal values may be shown once.

How the values were obtained:
[1] = system: LLC OE NAMPT cells; experiment: Cell viability 72 h, LLC OE NAMPT (Fig 4C); type: cell-based, mouse
Experimental: In vitro cell viability was determined using a Cell Counting Kit-8 (MCE) assay. Cells (5 × 10^3/well) were seeded in 96-well culture plates. After 24 h, they were incubated with various concentrations of the test compounds for 48–72 h at 37 °C in a 5% CO2 incubator. Next, 10% of the CCK-8 solution was added to each well, and the plates were incubated for an additional 4 h at 37 °C. The optical density of each well was measured at 450 nm using a multimode plate reader (Molecular Devices, San Jose, CA, USA). Cells (5 × 10^3/well) were seeded into a 96-well plate and cultured at 37 °C in a 5% CO2 incubator. […] At the final time point, 10 μl MTT solution (5 mg/ml, Sigma, Burlington, MA, USA) was added to each well and incubated for an additional 4 h at 37 °C in a 5% CO2 incubator. Then,100 μl of DMSO was added to each well and mixed thoroughly. Optical density was measured at 492 nm using a microplate reader (Molecular Devices, San Jose, CA, USA).

[2] = system: LLC OE NAMPT cells co-cultured with T cells; experiment: T cell-mediated tumor cell killing assay, LLC OE NAMPT; type: cell-based; settings: Mus musculus, 100 nM, read-out: inhibition rate (T cell-mediated killing)
Experimental: To acquire activated T cells, human peripheral blood mononuclear cells (PBMC; LTS1077, Yanjin Biological) were cultured in CTSTM AIIM VTM SFM (A3021002; Gibco) with ImmunoCult Human CD3/CD28/CD2 T-cell activator (25 µL/mL; […] Technologies, Cat#10970) for 48 h according to the manufacturer’s protocol. The experiments were performed using mouse anti-CD3 antibody (1 µg/mL; Thermo Scientific, 16-0032-82) and anti-CD28 antibody(5 µg/mL; Thermo Scientific, 16-0281-82). Cancer cells were allowed to adhere to the plates overnight and then incubated for 48 h with activated T cells in the presence or absence of DX ([…]). Different proportions of cancer cells and activated T cells were utilized according to the purpose of each experiment. The T-cell proliferation assay was 1:3; the T-cell killing assay was 1:10; T cells and cell debris were removed by PBS washing, and the living cancer cells were then quantified by a spectrometer at OD (570 nm) followed by crystal violet staining. page 12: Fig 3: […] expression patterns. […] Data was obtained from the TCGA database. (B) T cell-mediated tumor cell killing assay. T cells were co-cultured with LLC Vector, […] CQ-85, or BMS202. […] stained by crystal violet. The relative added value of activated T cells is shown below. Data are presented as mean ± SEM; *P < 0.05, **P < 0.01, ***P < 0.001, compared with control. n.s., not significant. […]

[3] = system: NAD+ content of LLC OE NAMPT/PD-L1 tumor tissue; experiment: NAD+ in tumor tissue, LLC OE NAMPT/PD-L1 mouse model; type: in vivo; settings: 20 mg/kg
[4] = system: LLC cells co-cultured with T cells; experiment: T cell killing assay (colony formation), LLC sh Vector; type: cell-based; settings: Mus musculus, 72 h, 100 nM, three days, read-out: inhibition rate of colony formation number
Experimental: To acquire activated T cells, human peripheral blood mononuclear cells (PBMC; LTS1077, Yanjin Biological) were cultured in CTSTM AIIM VTM SFM (A3021002; Gibco) with ImmunoCult Human CD3/CD28/CD2 T-cell activator (25 μL/mL; […] Technologies, Cat#10970) for 48 h according to the manufacturer's protocol. The experiments were performed using mouse anti-CD3 antibody (1 μg/mL; Thermo Scientific, 16-0032-82) and anti-CD28 antibody(5 μg/mL; Thermo Scientific, 16-0281-82). […] Different proportions of cancer cells and activated T cells were utilized according to the purpose of each experiment. The T-cell proliferation assay was 1:3; the T-cell killing assay was 1:10; T cells and cell debris were removed by PBS washing, and the living cancer cells were then quantified by a spectrometer at OD (570 nm) followed by crystal violet staining. page 28: Fig 8: Effects of LZFPN-90 and NMN on tumor immune microenvironment. […] (C) T cells were co-cultured with LLC cells, and treated with LZFPN-90 (100 nM), and NMN (1 mM) to detect the cell proliferation by T cell killing assay. Data are presented as mean ± SEM; *P < 0.05, **P < 0.01, ***P < 0.001 compared with control. n.s., not significant. (1 picture or pasted object on this page, not shown here)

[5] = system: A2780 cells; experiment: Apoptosis assay (Annexin V/PI), A2780; type: cell-based, human
Experimental: The cells are treated with the compounds. After 48–72 h, the cells were harvested and washed twice with cold PBS. The cells were then stained with Annexin V/propidium iodide (PI) (BD Biosciences) and examined using a NovoCyte Flow Cytometer (ACEA Biosciences). Data were analyzed using NovoExpress software (ACEA Biosciences).

[6] = system: lung cancer organoids derived from lung cancer patients; experiment: Patient-derived lung cancer organoid viability; type: cell-based, human; settings: 100 nM; 9 days
Experimental: Human lung cancer samples were obtained from Shengjing Hospital of China Medical University (IRB No. 2023PS1105K). The establishment of lung cancer patient-derived organoids was performed as described ([…] et al, [2019]). Organoids were seeded into 96-well plates and treated with the corresponding compounds for 9 days, and cell viability was determined by CellTiter Glo 3D cell viability assay (Promega, G9683).

[7] = system: Hep-3B cells; experiment: MTT assay 48 h, Hep-3B; type: cell-based, human
Experimental: Cells (5 × 10^3/well) were seeded into a 96-well plate and cultured at 37 °C in a 5% CO2 incubator. […] At the final time point, 10 μl MTT solution (5 mg/ml, Sigma, Burlington, MA, USA) was added to each well and incubated for an additional 4 h at 37 °C in a 5% CO2 incubator. Then,100 μl of DMSO was added to each well and mixed thoroughly. Optical density was measured at 492 nm using a microplate reader (Molecular Devices, San Jose, CA, USA).

[8] = system: A20 tumors; experiment: A20 tumor-bearing Balb/c mice; type: in vivo, mouse; settings: for tumor inhibition rate (TIR) / tumor growth inhibition (TGI) rate at endpoint: 12 days, Fig 6B

CCN(CC)CCCOc1cccc(-c2cccc3c2CCN3C(=O)c2ncc(CNC(=NC#N)Nc3ccncc3)s2)c1 [LZFPN-90]
Relative viability ([1]; head LLC OE NAMPT/PD-L1 (legend: LLC OE NAMPT), LZ90 0.25 (nM), 0 = 100): 77.2963 and 85.357 and 93.8244
Relative viability ([1]; head LLC OE NAMPT/PD-L1, LZ90 1): 81.6379 and 75.0704 and 92.5933
Relative viability ([1]; head LLC OE NAMPT/PD-L1, LZ90 4): 70.2024 and 73.3725 and 88.779
Relative viability ([1]; head LLC OE NAMPT/PD-L1, LZ90 16): 63.5687 and 62.4896 and 67.6771
Relative viability ([1]; head LLC OE NAMPT/PD-L1, LZ90 64): 57.8886 and 54.3565 and 56.8184
Relative viability ([1]; head LLC OE NAMPT/PD-L1, LZ90 256): 39.2756 and 40.3926 and 41.8466
inhibition at 0.1 µM [2]: ~60%
effect on NAD+ content in tumor tissues [3]: reduced NAD^+ content in tumor tissues
NAD+ in 20 mg tissue ([3]; tumor tissue): 221.603 and 139.494 and 234.768
inhibition at 0.1 µM [4]: 48.2%
Apoptotic cells (sum of both Annexin-positive quadrants) ([5]; LZ90 15 nM): 5.88 and 5.86 and 5.93
Apoptotic cells (sum of both Annexin-positive quadrants) ([5]; LZ90 60 nM): 12.2 and 12.06 and 12.87
Apoptotic cells (sum of both Annexin-positive quadrants) ([5]; LZ90 240 nM): 48.53 and 48.13 and 46.72
survival of lung cancer organoids [6]: the survival of the organoids was decreased significantly
Relative inhibition (敏感性) [7]: 0.42
tumor inhibition rate (TIR) / tumor growth inhibition (TGI) rate at endpoint ([8]; 20 mg/kg i.p.): 73.76%
tumor inhibition rate (TIR) / tumor growth inhibition (TGI) rate at endpoint ([8]; 40 mg/kg i.p.): 83.11%
effect on mouse organ or body weight ([8]; A20 model, FK866 20 mg/kg, LZFPN-90 20 and 40 mg/kg i.p.): no obvious effect on mouse organ or body weight
TIR (relative tumor weight) ([8]; Balb/c mice, 20 mg/kg i.p., Fig 6E): 73.8%
tumor inhibition rate (TIR) ([8]; repeat experiment, 40 mg/kg i.p.): 82.70%
effect on mouse organ index or body weight ([8]; repeat experiment, LZFPN-90 40 mg/kg, FK866 20 mg/kg + CQ-85 20 mg/kg i.p.): no obvious effect on mouse organ index or body weight
effect on body weight and organ index ([8]; two animal models (A20 and LLC OE NAMPT/PD-L1)): did not affect the body weight and organ index
